Results from patent US20030086923A1, “Method for the prevention and/or treatment of atherosclerosis” (priority 1999, published 2003).

Key:
[1] = tested on: ABC1 mRNA; experiment: Induction of ABC1 mRNA levels in THP-1 macrophages; assay type: cell-based; details: Homo sapiens, ABC-1, 0.10 μM, 6 hours, vs DMSO control, read-out: Fold Induction of ABC1 mRNA (Mean ± SEM)
Description: Induction of ABC1 mRNA levels
Cultured human THP-1 cells were used. All cell culture incubations were performed at 37° C. under 95% air/5% carbon dioxide. Cells were grown in Complete RPMI medium plus 10% FCS (Fetal Calf Serum). Complete RPMI medium is defined as RPMI medium (Sigma Cat.# R8005) containing […], 1 mM Na Pyruvate, 2 mM L-Glutamine, and Antibiotic-Antimyotic Solution (Sigma Cat.# A9909: 100U/ml Penicillin, 0.1 mg/ml Streptomycin, 0.251l/ml Amphotericin B). Cells were differentiated into macrophages by incubation in Complete RPMI medium plus 10% FCS (Fetal Calf Serum) plus 100 nM tetradecanoyl phorbol acetate for three days. After differentiation, the THP-1 macrophages were incubated in Complete RPMI medium plus 10% FCS (Fetal Calf Serum) with the test LXR agonist. After 6 hours at 37° C., the cells were harvested and total RNA prepared using the phenol/guanidine isothiocyanate method as supplied and described by Molecular Research Center, Inc. (TRI REAGENTφ Cat. No. TR 118). ABC1 mRNA levels in the total RNA were measured using the TaqMan® mRNA quantitation system, following protocols published by the manufacturer (Perkin-Elmer). The oligonucleotide PCR primers used to detect ABC1 were:
The oligonucleotide probe used was:
ABC1 mRNA levels in each sample were normalized to the mRNA levels for the 23 kDa highly basic protein. […]

[2] = biological target: T1, human PPARδ (Homo sapiens, UniProt Q03181); experiment: PPARδ competition binding assay
T1 sequence (Q03181 1-441): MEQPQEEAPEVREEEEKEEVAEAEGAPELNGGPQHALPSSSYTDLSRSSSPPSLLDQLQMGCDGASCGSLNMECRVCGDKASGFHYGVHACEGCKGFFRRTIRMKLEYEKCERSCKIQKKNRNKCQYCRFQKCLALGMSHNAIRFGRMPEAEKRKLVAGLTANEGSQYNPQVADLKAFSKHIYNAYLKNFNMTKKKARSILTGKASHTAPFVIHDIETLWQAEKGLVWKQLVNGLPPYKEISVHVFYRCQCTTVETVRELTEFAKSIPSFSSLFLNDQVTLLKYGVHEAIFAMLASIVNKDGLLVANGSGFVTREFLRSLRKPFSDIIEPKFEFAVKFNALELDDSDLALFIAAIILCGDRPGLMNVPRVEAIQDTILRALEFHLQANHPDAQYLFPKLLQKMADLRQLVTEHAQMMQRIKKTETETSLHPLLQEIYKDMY
Text: (§1) The term ligand throughout this application should be understood to include an agonist, partial agonist or antagonist of LXR. The ligand may be selective for LXRα or LXRβ, or it may have mixed binding affinity for both LXRα and LXRβ. Particularly, compounds within the scope of this invention include those which have greater selectivity as determined by binding affinity for LXRα and/or LXRβ receptors than they have for each of the PPARα, γ and δ receptors.

[3] = biological target: T2, human PPARα (Homo sapiens, UniProt Q07869); experiment: PPARα competition binding assay
T2 sequence (Q07869 1-468): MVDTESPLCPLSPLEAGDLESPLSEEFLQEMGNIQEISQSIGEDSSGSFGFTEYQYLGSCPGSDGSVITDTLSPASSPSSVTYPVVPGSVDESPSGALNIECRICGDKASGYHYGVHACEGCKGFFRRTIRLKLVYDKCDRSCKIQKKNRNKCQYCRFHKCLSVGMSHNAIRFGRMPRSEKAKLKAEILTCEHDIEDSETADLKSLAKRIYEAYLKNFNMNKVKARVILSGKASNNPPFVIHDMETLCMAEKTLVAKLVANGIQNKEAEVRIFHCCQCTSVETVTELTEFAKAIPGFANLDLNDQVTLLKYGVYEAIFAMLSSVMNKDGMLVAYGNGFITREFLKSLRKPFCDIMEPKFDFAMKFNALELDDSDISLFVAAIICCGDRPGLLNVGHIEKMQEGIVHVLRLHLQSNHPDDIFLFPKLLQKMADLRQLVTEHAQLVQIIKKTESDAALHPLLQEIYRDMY
Text: as §1

IC50 [2]: > 10 µM | IC50 [3]: > 10 µM
SMILES: CC(=O)Oc1ccc2c(c1)[C@@]1(C)CCC[C@](C)(C(=O)OC(=O)[C@@]3(C)CCC[C@]4(C)c5cc(OC(C)=O)ccc5CC[C@@H]34)[C@@H]1CC2 [Compound 1]
fold induction at 0.1 µM [1]: 6.9 ± 0.6
